According to patent US20200085895A1, “PUNICALAGIN COMPOSITIONS AND METHODS FOR THE TREATMENT OF DISORDERS ARISING FROM METHYLGLYOXAL-INDUCED DNA DAMAGE” (Verdure Sciences, priority 2018, published 2020):
“Also recorded” adds a separate entry of the source.

Columns and labels:
HaCaT cells [1] = assay: Cell viability of HaCaT cells exposed to test substances (CTG 2.0); type: cell-based, human; conditions: 0-200 μM, 24 hours, FIG. 3
Description: (§1) HaCaT cells which were derived from human adult keratinocytes were bought from American Type Culture Collection (Manassas, Va., USA). The cells were maintained in DMEM supplemented with 5% FBS at 37° C. under an atmosphere of 5% CO2 and 95% air. The culture medium was replaced every other day.
Cellular viability was assessed using the Cell Titer Glo2.0 (CTG 2.0) one-step assay. Briefly, HaCaT cells were seeded at about 50 000 cells/ml to yield 50-60% confluence in a standard white-walled clear bottom 96-well plate. HaCaT cells were exposed to different concentration of PE (0, 6.25, 12.5, 25, 50, 100, 200 μg/mL), PA (0, 3.13, 6.25, 12.5, 25, 50, 100, 200 μM), EA (0, 3.13, 6.25, 12.5, 25, 50, 100, 200 μM), and UA (0, 3.13, 6.25, 12.5, 25, 50, 100, 200 μM) for 24 hours. Following the pre-determined incubation period of 24 hours, CTG 2.0 was added in a 1:1 ratio with existing media and mixed for 5 minutes on an orbital shaker prior to luminescence measurement (Spectramax M2, Molecular Devices, Sunnyvale, Calif., USA).

HaCaT cells [2] = assay: Reactive oxygen species (ROS) assay, DCFDA; type: cell-based, human; conditions: MGO 400 μM 24 h, FIG. 6
Description: HaCaT cells were seeded at about 50 000 cells/ml to yield 50-60% confluence in standard white-walled clear bottom 96-well plates and 6-well plates in DMEM. After 12 h incubation cells were pre-treated with concentrations of PE (0, 6.25, 12.5, 25, 50, 100, 200 μg/mL), PA (0, 3.13, 6.25, 12.5, 25, 50, 100, 200 μM), EA (0, 3.13, 6.25, 12.5, 25, 50, 100, 200 μM), and UA (0, 3.13, 6.25, 12.5, 25, 50, 100, 200 μM) for 2 hours. Then, the medium was replaced with DMEM containing 20 μM DCFDA and MGO (400 μM) for 24 h. After incubation, all the wells were washed with PBS twice. Subsequently, the fluorescence signals from 96-well plates were read at excitation and emission wavelengths of 485 and 525 nm, respectively, using a Spectra Max M2 spectrometer (Molecular Devices, Sunnyvale, Calif., USA). Cells images were taken with EVOS Cell Imaging System (Invitrogen, Waltham, Mass., USA) using 6-well plates cells.

HaCaT cells [3] = assay: Hoechst 33342 staining, MGO-induced DNA damage; type: cell-based, human; conditions: 50 μM pre-treatment 2 hours, 400 μM MGO 24 hours; FIG. 7
Description: HaCaT cells were seeded at about 50,000 cells/ml to yield 50-60% confluency in a standard 6-well plate. Cells were pre-treated with PE 50 μg/mL, PA 50 μM, EA 50 μM, and UA 50 μM, respectively for 2 hours. Then cells were washed with PBS once and treated with 400 μM of MGO for 24 hours. After that cells were washed with PBS twice and then incubated with 250 μl Hoechst 33342 (1:300 dilute with PBS) at room temperature for 15 minutes. Then cells were fixed with 75% ethanol for 15 minutes, followed by imaging with EVOS Cell Imaging System (Invitrogen, Waltham, Mass., USA).

HaCaT cells [4] = assay: Alkaline comet assay, MGO-induced DNA damage; type: cell-based, human; conditions: for protective effect on MGO induced DNA damage (comet assay, tail DNA): 50 μM pre-treatment 2 hours, MGO 400 μM 24 h, FIG. 8
Description: HaCaT cells were seeded at about 100 000 cells/ml to yield 80-90% confluence in standard 6-well plates. […] After incubation, the cells were washed with PBS twice and then treated with MGO (400 μM) for 24 h. After that, comet assay was performed as per the protocol provided by [sequence] (4250-050-K). Briefly, cells were collected and combined with molten LMAgarose at a ratio of 1:10, pipetted onto Comet slides, incubate in Lysis Solution at 4° C. overnight, immerse slides in Alkaline Unwinding Solution for 20 minutes, apply electrophoresis in Alkaline Electrophoresis Solution at 21 volts for 30 minutes, fixed in 75% ethanol for 15 minutes, dry in 37° C. for 15 minutes and then stain in diluted SYBR GOLD, images were taken with EVOS Cell Imaging System (Invitrogen, Waltham, Mass., USA) and analyzed via CASP.

HaCaT cells [5] = assay: Transwell assay (cell migration ability); type: cell-based, human; conditions: 50 μM pre-treatment 2 hours, 400 μM MGO 24 h; FIG. 9B
Description: Cell migration ability was measured by transwell assay. HaCaT cells in 6-well plates were cultured up to about 80-90% confluence. Then cells were pretreated with PE 50 μg/mL, PA 50 μM, EA 50 μM, and UA 50 μM, respectively for 2 hours, then washed with PBS twice. After that, cells were exposed to 400 μM of MGO for 24 h. Then, cells were digested with trypsin and centrifuged at 300 g for 5 min. Then, 2.5×10^5 cell were suspended in 1 ml serum free DMED. 100 μl of serum free DMEM were added into the upper chamber and incubated for 5 minutes, then 600 μl DMEM containing 5% FBS were added to the 24 well plate (lower chamber). After that 300 μl of cell suspension were added into the upper chamber. After 12 h incubation, cells in upper chamber were washed with PBS and fixed with 75% ethanol for 15 minutes. Then cells in upper chamber were stained with Crystal violet for 10 minutes and washed for 5 times. Cells inside the upper chamber were removed by swab. Then, pictures were taken with EVOS Cell Imaging System (Invitrogen, Waltham, Mass., USA). After that stained cells were incubated in 75% ethanol for 15 minutes for decoloration. Then, optical density of the decoloration solution in 570 nm was calculated via Spectra Max M2 spectrometer (Molecular Devices, Sunnyvale, Calif., USA).

9mer ss-DNA = assay: Glycation assay and LC-MS analysis of MGO-induced DNA damage; type: biochemical; conditions: FIG. 1
Source text: DNA Oligonucleotide Synthesis. Nine-mer single stranded DNA oligonucleotide (9mer ss-DNA) with the sequence 5′-TTTTGTTTT-3′ containing a single guanine base was synthesized by using solid-phase phosphoramidite chemistry as previously described^2 on MerMade-4 DNA synthesizer. The oligonucleotide was purified by using Thermo Scientific DNAPac PA100 Oligonucleotide anion-exchange column (4×250 mm, 13 μm) with two mobile phases. Solvent A was water, and solvent B was 1.5M ammonium acetate in water. The oligonucleotide was characterized by HPLC electrospray ionization (ESI) triple quadrupole-TOF mass spectrometry (MS). The concentration of oligonucleotide was determined by measuring UV absorbance at 260 nm on a NanoDrop spectrophotometer.
Glycation Assay and LC-MS Analysis. […] LC-MS analysis was carried out on AB Sciex triple quadrupole-TOF 4600 mass spectrometer. […]
Statistical Analysis. […] The data between two groups was assessed under the two-tailed Student's t test. p-value<0.05 was considered as statistically significant. […]

HaCaT cells [6] = assay: Protective effect on MGO induced cell damage model (CTG 2.0); type: cell-based, human; conditions: 12.5, 25, and 50 μM pre-treatment 2 hours, then 400 μM MGO 24 hours; FIG. 5
Description: as §1
Briefly, HaCaT cells were seeded at about 50000 cells/ml to yield 50-60% confluence in standard white-walled clear bottom 96-well plates and 6-well plates. After 12 h incubation cells were pre-treated with different concentrations of PE (0, 6.25, 12.5, 25, 50, 100, 200 μg/mL), PA (0, 3.13, 6.25, 12.5, 25, 50, 100, 200 μM), EA (0, 3.13, 6.25, 12.5, 25, 50, 100, 200 μM), and UA (0, 3.13, 6.25, 12.5, 25, 50, 100, 200 μM) for 2 hours. Then cells were washed with PBS twice and treated with 400 μM MGO for 24 hours. Cellular viability was detected using cells in 96-well plate via CTG 2.0, and cell images were taken with EVOS Cell Imaging System (Invitrogen, Waltham, Mass., USA) using cells in 6-well plates after crystal violet stain.

HaCaT cells [7] = assay: Wound healing model (in vitro scratch healing assay); type: cell-based, human; conditions: 50 μM pre-treatment 2 hours, 400 μM MGO 48 h; FIG. 9D, 9E
Description: as §1
Wound healing model was constructed with an in vitro scratch healing assay performed as described previously with certain modifications.^4 HaCaT cells in 6-well plates were cultured up to about 80-90% confluence. Then cells were pretreated with PE 50 μg/mL, PA 50 μM, EA 50 μM, and UA 50 μM, respectively for 2 hours. After the treatments, a narrow wound-like gap in the cell monolayer was created with a […] pipette tip in each well. The shedding cells were washed off with PBS and then the images were captured with EVOS Cell Imaging System (Invitrogen, Waltham, Mass., USA). The cells were further exposed to 400 μM MGO for 48 h and the cell images were captured with EVOS Cell Imaging System (Invitrogen, Waltham, Mass., USA). Gap area was analyzed in image J, a software quantifying visualization image data, and the wound healing rate was calculated as follows=[…]/Gap Area(0 h)×100%.

HaCaT cells [8] = assay: MGO induced cell damage model (CTG 2.0, crystal violet staining); type: cell-based, human; conditions: 24 hours
Description: as §1
Briefly, HaCaT cells were seeded at about 50000 cells/ml to yield 50-60% confluence in standard white-walled clear bottom 96-well plates and 6-well plates. After 12 h incubation cells were treated with different concentrations of MGO ([…], 200 μM, 300 μM, 400 μM, 500 μM and 600 μM) for 24 hours respectively and use non-treated group as control. Cellular viability was detected using cells in 96-well plates via CTG 2.0. […] At higher concentrations than 400 μM the damaged caused by MGO to the cells was extreme. Morphological analysis was conducted to evaluate cell damage with crystal violet staining method in 6-well plates as per the below mentioned procedure.
Briefly crystal violet staining were carried with protocol provided by sigma. The staining solution was prepared by dissolve 5 g of crystal violet powder into 100 ml 20% ethanol to make. HaCaT cells in 6-well plates were fixed with 75% ethanol 15 minutes in room temperature. Then cells were incubated with staining solution for 10 minutes. After that cells were washed with PBS for 5 times. Subsequently, pictures were taken under EVOS Cell Imaging System (Invitrogen, Waltham, Mass., USA).
Excessive accumulation of MGO is harmful for skin cells, so the effects of MGO on cell viability at various concentrations on HaCaT cells were evaluated first.

SMILES | cytotoxicity to HaCaT cells (HaCaT cells [1]) | production of MGO induced ROS in HaCaT cells, compared to non-treated group (HaCaT cells [2]; 25 and 50 μM pre-treatment 2 hours) | DNA damage level caused by MGO (Hoechst staining) (HaCaT cells [3]) | protective effect on MGO induced DNA damage (comet assay, tail DNA) (HaCaT cells [4]) | cell migration ability (transwell assay) (HaCaT cells [5]) | protective effect against methylglyoxal (MGO)-induced DNA damage (9mer ss-DNA; 200 μM 9mer ss-DNA, 200 μM MGO, pH 7.4, 37° C., 7 days) | activity in reducing DNA damage compared with aminoguanidine (AG) positive control (9mer ss-DNA; equivalent concentration (50 μM)) | cell viability of HaCaT cells exposed to MGO, compared to non-treated group (HaCaT cells [6]) | production of MGO induced ROS in HaCaT cells, compared to non-treated group (HaCaT cells [2]; 12.5, 25, and 50 μM pre-treatment 2 hours) | wound healing process in the presence of MGO (HaCaT cells [7]) | effect of MGO on HaCaT cell viability (HaCaT cells [8]; MGO 100-300 μM) | effect of MGO on HaCaT cell viability (HaCaT cells [8]; MGO at 400 μM or higher) | effect of MGO on HaCaT cell viability (HaCaT cells [8]; MGO higher than 400 μM) | percentage of fracture DNA compared to control group (comet assay) (HaCaT cells [4]; MGO 400 μM alone, 24 h) | production of MGO induced ROS in HaCaT cells, compared to non-treated group (HaCaT cells [2]; 50 μM pre-treatment 2 hours)
O=c1oc2cc(O)ccc2c2ccc(O)cc12 [UA, urolithin A] | not cytotoxic | significantly reduced the production of MGO induced ROS | can reduce the DNA damage level | no protective effects | promotive effects | – | – | – | – | – | – | – | – | – | –
O=C1O[C@H]2[C@@H]3OC(=O)c4cc(O)c(O)c(O)c4-c4c(O)c(O)c5oc(=O)c6c(c(O)c(O)c7oc(=O)c4c5c76)-c4c(cc(O)c(O)c4O)C(=O)OC[C@H]3OC(O)[C@@H]2OC(=O)c2cc(O)c(O)c(O)c2-c2c1cc(O)c(O)c2O (mixture of isomers) [PA, punicalagin] | – | – | can reduce the DNA damage level | protective effect | promotive effects | protective effect | considerably more active | significantly increased cell viability | significantly reduced the production of MGO induced ROS | can promote the wound healing process | – | – | – | – | –
CC(=O)C=O [MGO, methylglyoxal] | – | – | – | – | – | – | – | – | – | – | did not affect the cell viability; also recorded: non-toxic | significant cytotoxicity | extreme; also recorded: extremely cytotoxic | could increase the percentage of fracture DNA | –
O=c1oc2c(O)c(O)cc3c(=O)oc4c(O)c(O)cc1c4c23 [EA, ellagic acid] | not cytotoxic | – | can reduce the DNA damage level | no protective effects | promotive effects | – | – | – | – | – | – | – | – | – | significantly reduced the production of MGO induced ROS
